pEC50: −log10 of the molar value. Where two headings read alike, the source gives them in different places.
Assays:
[1] = Metabolism by human liver microsomes; format: in vitro ADME; details: in the presence of NADPH; for Scoring (% of drug remaining after 60 minutes, PDR60): Table 8, 10 µM, 1 mg/mL protein
Protocol: Representative compounds of the invention (i.e., test compounds) and the positive control, 7-ethoxycoumarin, were prepared as stock solutions at 10 mM in DMSO and eventually diluted to 10 μM in the test plate, with an appropriate amount of acetonitrle and tris HCl buffer. Final DMSO and acetonitrile concentrations were […] and 0.5% respectively. NADPH was prepared in tris HCl buffer to a stock of 10 mM. A frozen aliquot of live microsomes was retrieved from the freezer (−80° C.) and thawed by placing the tube on wet ice. After thawing, the tubes were gently mixed and the required amount, transferred to tris HCl buffer. Test compounds or positive control were pre-incubated, separately, for 10 minutes, with liver microsomes (1 mg/mL protein), at 37° C., in 100 mM Tris HCl at pH 7.5. After preincubation the reaction was started by adding 1 mM NADPH (pre-equilibrated to […]) and the reaction allowed to proceed for 60 minutes. At 60 minutes, a 50 μL aliquot was removed and quenched with 200 uL of acetonitrile containing a mixture of internal standards (Tolbutamide (500 ng/mL) and Telmistartan (500 ng/mL)) and vortexed then centrifuged at 4000 rmp for 10 minutes (Eppendorf 5810R). The supernatant was transferred to a 96 well plate for LC-MS/MS analysis.
An LC-MS/MS method was devised for the test compounds and the control, using a AB Sciex API 4000 system coupled to a NEXAR™ UHPLC (Shimadzu) system. Analytes were separated on a Phenomenex Kinetex C18 column (50×2.1 mm, 5 μm) using a gradient that was appropriate for each compound, at a flow rate of 1 ml/minute, utilizing a mobile phase of 0.1% formic acid in MILLI-Q™ water (A) and 0.1% formic acid in acetonitrile (B). The MS instrument was operated in positive mode (ESI+)/negative (ESI−). The multiple reaction monitoring (MRM) transition for test and control compounds was used for the LC-MS/MS analysis. MRM transitions for control compound 7-ethoxycoumarinm were Quadropole 1: 191.0, Quadropole 3: 163.0, dwell time: 75 msec, using curtain gas settings of 5 V, ion-spray voltage of 5500 V, temperature of 50° C. and gas settings for nebulizer and auxiliary set to 30 and 40 psi, respectively. The interface heater was kept on. Entrance potential and collision cell exit potential were varied to tune for a specific compound.
Using a suitable LC-MS/MS method, the percentage of drug remaining at 60 minutes ([…]) was assessed by comparing the average analyte to internal standard area ratio at 60 minutes to the average analyte to internal standard area ratio at 0 time control, as a percentage, from a 5 to 10 μL sample injection.
According to the above assay, the representative compounds listed in Table 8 below were active in the Human liver microsome assay at […] and the % of drug remaining after 60 minutes (PDR60), in the presence of NADPH, was assessed by LC-MS/MS. Average PDR60 for the standard compound, 7-ethoxycoumarin was <=65% in the presence of NADPH. Scoring for the test compounds, in the presence of NADPH, was as follows: “A” represents a PDR^60 of 81 to 100%, “B” represents a PDR^60 of 61 to 80%, “C” represents a PDR^60 of 31 to 60% and “D” represents a PDR^60 of 0 to 30%.

Rat DRG = experiment: Rat dorsal root ganglion excitability response (EFS, Ca2+ transients); format: cell-based
Protocol: Dorsal root ganglions (DRGs) were dissected from adult rats. The tissue was processed, and cells were seeded into call culture plates (48 center wells of one quadrant in 384-well plates) and cultured for 2 days prior to Electrical field stimulation (EFS). To visualize the neuronal excitability response, intracellular Ca^+2 transients were monitored using the Ca^+2 indicator, Ca5. Ca5 was added to the cultures 1 h prior to EFS. Representative test compounds of the invention (i.e., test compounds) and reference compound, tetracaine, were added in concentration-response format encompassing six concentrations, performed in duplicate. The highest concentration tested was typically 30 μM with 1 in 3 dilutions generating the subsequent concentrations.
Effects on DRG excitability by the test compounds and standard were evaluated using four EFS protocols as disclosed in Table 2.
Experimental results were performed using two separate sets of plates using separate test compound and standard dilutions, to provide n=2. In the first set of experiments, compounds were added 24 h prior to EFS to increase the possibility to also detect more long-term compound effects. In the second set of experiments the compounds were added directly prior to EFS. Excitability response to EFS was analyzed as the average fluorescence ratio (peak/baseline) change per well. All plates were evaluated using high content imaging equipment post-EFS, imaging the Ca5 background staining to detect any possible compound-related toxic effects.
Average response by the standard compound, tetracaine, was 4.05 μM.

[2] = Rattus norvegicus, Table 3, electrical field stimulation, Ca5 indicator, read-out: Scoring (EC50, Rat DRG excitability)

Scoring (% of drug remaining after 60 minutes, PDR60) [1]	Structure (SMILES)	pEC50 (Rat DRG; [2])	further results
B (a PDR^60 of 61 to 80%)	CC1(C)CCC2=C1CC[C@H]([C@@]1(C)Cc3cn[nH]c3C[C@@H]1CO)[C@H]2CN [Ia-2, ((5R,6S)-5-((4R,5S)-4-(aminomethyl)-1,1-dimethyl-2,3,4,5,6,7-hexahydro-1H-inden-5-yl)-5-methyl-4,5,6,7-tetrahydro-1H-indazol-6-yl)methanol]	< 4.82	–
D (a PDR^60 of 0 to 30%)	C[C@H]1CC[C@H]2[C@H](CO)[C@@H]([C@@]3(C)Cc4cn[nH]c4C[C@@H]3CO)CC[C@]12C [Ia-5, ((5R,6S)-5-((1S,3aS,4S,5S,7aR)-4-(hydroxymethyl)-1,7a-dimethyloctahydro-1H-inden-5-yl)-5-methyl-4,5,6,7-tetrahydro-1H-indazol-6-yl)methanol]	–	–
D (a PDR^60 of 0 to 30%)	C=C1CC[C@H]2[C@H](CN)[C@@H]([C@@]3(C)Cc4cnn(C(C)(C)C)c4C[C@@H]3CO)CC[C@]12C [Ia-12, ((5R,6S)-5-((3aS,4R,5S,7aS)-4-(aminomethyl)-7a-methyl-1-methyleneoctahydro-1H-inden-5-yl)-1-(tert-butyl)-5-methyl-4,5,6,7-tetrahydro-1H-indazol-6-yl)methanol]	5.22 to 5.70	–
A (a PDR^60 of 81 to 100%)	C=C1CC[C@H]2[C@H](CN)[C@@H]([C@@]3(C)Cc4cn(C(C)(C)C)nc4C[C@@H]3CO)CC[C@]12C [Ia-13, ((5R,6S)-5-((3aS,4R,5S,7aS)-4-(aminomethyl)-7a-methyl-1-methyleneoctahydro-1H-inden-5-yl)-2-(tert-butyl)-5-methyl-4,5,6,7-tetrahydro-2H-indazol-6-yl)methanol]	5.22 to 5.70	–
B (a PDR^60 of 61 to 80%)	C=C1CC[C@H]2[C@H](CN)[C@@H]([C@@]3(C)Cc4cnn(C5CCCCC5)c4C[C@@H]3CO)CC[C@]12C [Ia-16, ((5R,6S)-5-((3aS,4R,5S,7aS)-4-(aminomethyl)-7a-methyl-1-methyleneoctahydro-1H-inden-5-yl)-1-cyclohexyl-5-methyl-4,5,6,7-tetrahydro-1H-indazol-6-yl)methanol]	5.22 to 5.70	–
A (a PDR^60 of 81 to 100%)	C[C@]1([C@H]2CC[C@]3(C)C=CC[C@H]3[C@@H]2CN)Cc2cn[nH]c2C[C@@H]1CO [Ia-28, ((5R,6S)-5-((3aR,6S,7R,7aS)-7-(aminomethyl)-3a-methyl-3a,4,5,6,7,7a-hexahydro-1H-inden-6-yl)-5-methyl-4,5,6,7-tetrahydro-1H-indazol-6-yl)methanol]	–	–
A (a PDR^60 of 81 to 100%)	CC(C)CCC[C@@H](C)[C@H]1CC[C@H]2[C@H](CN)[C@@H]([C@@]3(C)Cc4cn[nH]c4C[C@@H]3CN)CC[C@]12C [Ia-57, ((1R,3aS,4S,5S,7aR)-5-((5R,6S)-6-(aminomethyl)-5-methyl-4,5,6,7-tetrahydro-1H-indazol-5-yl)-7a-methyl-1-((R)-6-methylheptan-2-yl)octahydro-1H-inden-4-yl)methanamine]	–	–
A (a PDR^60 of 81 to 100%)	C=C1CC[C@H]2[C@H](CN)[C@@H]([C@@]3(C)Cc4cn[nH]c4C[C@@H]3CN)CC[C@]12C [Ia-58, ((3aS,4R,5S,7aS)-5-((5R,6S)-6-(aminomethyl)-5-methyl-4,5,6,7-tetrahydro-1H-indazol-5-yl)-7a-methyl-1-methyleneoctahydro-1H-inden-4-yl)methanamine]	–	–

The next lines start with the compound.

Structure (SMILES)	Scoring (% of drug remaining after 60 minutes, PDR60) [1]	pEC50 (Rat DRG; [2])	further results
CCOc1ccc2ccc(=O)oc2c1 [7-ethoxycoumarin, reference compound]	–	–	Average PDR60 [1]: <= 65%
C=C1CC[C@H]2[C@H](CN)[C@@H]([C@@]3(C)Cc4cn(-c5ccccn5)nc4C[C@@H]3CO)CC[C@]12C [Ia-11, ((5R,6S)-5-((3aS,4R,5S,7aS)-4-(aminomethyl)-7a-methyl-1-methyleneoctahydro-1H-inden-5-yl)-5-methyl-2-(pyridin-2-yl)-4,5,6,7-tetrahydro-2H-indazol-6-yl)methanol]	B (a PDR^60 of 61 to 80%)	5.22 to 5.70	–
C=C1CC[C@H]2[C@H](CN)[C@@H]([C@@]3(C)Cc4cn(CC(C)(C)C)nc4C[C@@H]3CO)CC[C@]12C [Ia-23, ((5R,6S)-5-((3aS,4R,5S,7aS)-4-(aminomethyl)-7a-methyl-1-methyleneoctahydro-1H-inden-5-yl)-5-methyl-2-neopentyl-4,5,6,7-tetrahydro-2H-indazol-6-yl)methanol]	–	5.22 to 5.70	–
C[C@H]1CC[C@H]2[C@H](CN)[C@@H]([C@@]3(C)Cc4cnn(-c5ccccc5)c4C[C@@H]3CO)CC[C@]12C [Ia-35, ((5R,6S)-5-((1S,3aS,4S,5S,7aR)-4-(aminomethyl)-1,7a-dimethyloctahydro-1H-inden-5-yl)-5-methyl-1-phenyl-4,5,6,7-tetrahydro-1H-indazol-6-yl)methanol]	–	> 5.70	–
C[C@H]1CC[C@H]2[C@H](CN)[C@@H]([C@@]3(C)Cc4cnn(C5CCCCC5)c4C[C@@H]3CO)CC[C@]12C [Ia-37, ((5R,6S)-5-((1S,3aS,4S,5S,7aR)-4-(aminomethyl)-1,7a-dimethyloctahydro-1H-inden-5-yl)-1-cyclohexyl-5-methyl-4,5,6,7-tetrahydro-1H-indazol-6-yl)methanol]	–	> 5.70	–
C[C@H]1CC[C@H]2[C@H](CN)[C@@H]([C@@]3(C)Cc4cnn(CC(C)(C)C)c4C[C@@H]3CO)CC[C@]12C [Ia-38, ((5R,6S)-5-((1S,3aS,4S,5S,7aR)-4-(aminomethyl)-1,7a-dimethyloctahydro-1H-inden-5-yl)-5-methyl-1-neopentyl-4,5,6,7-tetrahydro-1H-indazol-6-yl)methanol]	–	> 5.70	–
C[C@H]1CC[C@H]2[C@H](CN)[C@@H]([C@@]3(C)Cc4cnn(C(C)(C)C)c4C[C@@H]3CO)CC[C@]12C [Ia-40, ((5R,6S)-5-((1S,3aS,4S,5S,7aR)-4-(aminomethyl)-1,7a-dimethyloctahydro-1H-inden-5-yl)-1-(tert-butyl)-5-methyl-4,5,6,7-tetrahydro-1H-indazol-6-yl)methanol]	–	5.22 to 5.70	–
C[C@H]1CC[C@H]2[C@H](CN)[C@@H]([C@@]3(C)Cc4cnn(-c5ccccn5)c4C[C@@H]3CO)CC[C@]12C [Ia-42, ((5R,6S)-5-((1S,3aS,4S,5S,7aR)-4-(aminomethyl)-1,7a-dimethyloctahydro-1H-inden-5-yl)-5-methyl-1-(pyridin-2-yl)-4,5,6,7-tetrahydro-1H-indazol-6-yl)methanol]	–	> 5.70	–
C[C@H]1CC[C@H]2[C@H](CN)[C@@H]([C@@]3(C)Cc4cn(-c5ccccn5)nc4C[C@@H]3CO)CC[C@]12C [Ia-43, ((5R,6S)-5-((1S,3aS,4S,5S,7aR)-4-(aminomethyl)-1,7a-dimethyloctahydro-1H-inden-5-yl)-5-methyl-2-(pyridin-2-yl)-4,5,6,7-tetrahydro-2H-indazol-6-yl)methanol]	–	> 5.70	–
CCCCNc1ccc(C(=O)OCCN(C)C)cc1 [tetracaine, reference compound]	–	–	pEC50 (Rat DRG; Rat DRG excitability, read-out: Average response by the standard compound): 5.39
